Measurements: patent US9914722B2, “Compounds for treating spinal muscular atrophy” (PTC Therapeutics Inc., priority 2012, dated 2018)
Entries after “also recorded” stand apart in the source; their conditions may differ.

Legend:
[1] = system: gems (Smn-dependent nuclear speckles) in SMA patient fibroblast cells; assay: Gems count (Smn-dependent nuclear speckle count) assay; format: cell-based, human; conditions: Type 1 SMA patient fibroblasts, 48 hour, fluorescence microscopy, relative to DMSO, FIG. 7
Text: Gems Count (Smn-Dependent Nuclear Speckle Count) Assay
The level of Smn protein directly correlates with the amount of nuclear foci, also known as gems, produced upon staining the cell with a fluorescently labeled anti-Smn antibody (Liu and Dreyfuss, EMBO J., 1996, 15:3555). Gems are multi-protein complexes whose formation is nucleated by the Smn protein and the gems count assay is used to evaluate the level of Smn protein in the cell. As described herein, the gems count assay is used to quantify the level of Smn protein in SMA patient fibroblast cells treated with a test compound.
Protocol: Cells are thawed and incubated in DMEM-10% FBS for 72 hours, then trypsinized, counted and resuspended to 100,000 cells/mL in DMEM-10% FBS. The cell suspension (2 mL) is plated in a 6-well cell culture plate with a sterile cover slip and incubated for 3 to 5 hours. Test compounds are serially diluted 3.16-fold in 100% DMSO to generate a 7-point dilution curve. […]
Cell culture medium is aspirated from the wells containing cover slips and gently washed three times with cold PBS. […] The number of gems is counted per ≧150 nuclei and % activation is calculated using DMSO and 10 nM bortezomib as controls. For each test compound, the cells are examined at all wavelengths to identify test compounds with inherent fluorescence.

[2] = system: SMN2 full length and Δ7 mRNA; assay: Endogenous SMN2 mRNA RT-qPCR splicing assay in cultured cells; format: cell-based, human; conditions: 24 hr, FIG. 4
Procedure: Endogenous SMN2 mRNA RT-qPCR Splicing Assay in Cultured Cells
The reverse transcription-quantitative PCR-based (RT-qPCR) assay is used to quantify the levels of the SMN2 full length and Δ7 mRNA in primary cells and cell lines containing the SMN2 gene treated with a test compound.
Protocol. GM03813 SMA patient cells (5,000 cells/well) are seeded in 200 μL, of cell culture medium (DMEM plus 10% FBS) in 96-well flat-bottom plates and the plate is immediately swirled to ensure proper dispersal of cells, forming an even monolayer of cells. Cells are allowed to attach for at least 4-6 hrs. Test compounds are serially diluted 3.16-fold in 100% DMSO to generate a 7-point concentration curve. A solution of test compound (1 μL, 200× in DMSO) is added to each test well and 1 μL, DMSO is added to each control well. The plate is incubated for 24 hrs in a cell culture incubator (37° C., 5% CO2, 100% relative humidity). The cells are then lysed in Cells-To-Ct lysis buffer and the lysate is stored at −80° C.
SMN2-specific spliced products and GAPDH mRNA are identified using the following primers and probes in Table 5. […] Since the SMA patient cells used in Example 3 contain only the SMN2 gene, RT-qPCR can quantify only SMN2 full-length and Δ7 mRNA. […]
The increase of SMN2 FL and decrease in SMN2 Δ7 mRNA relative to those in cells treated with vehicle control are determined from real-time PCR data using a modified ΔΔCt method (as described in Livak and Schmittgen, Methods, 2001, 25:402-8). The amplification efficiency (E) is calculated from the slope of the amplification curve for SMN2 FL, SMN2 Δ7, and GAPDH individually. The abundance of SMN2 FL, SMN2 Δ7 and GAPDH mRNA are then calculated as (1+E)^−Ct, where Ct is the threshold value for each amplicon. […]

[3] = GM03813 Type 1 SMA patient fibroblasts, increasing concentrations

COc1ccc(-c2cc(=O)c3cc(N4CCN[C@@H](C)C4)ccc3o2)cc1F [Cpd 38, 2-(3-fluoro-4-methoxyphenyl)-6-[(3S)-3-methylpiperazin-1-yl]-4H-chromen-4-one]
nuclear speckle counts (gems) [1]: progressively more gems relative to cells treated with DMSO; also recorded: increase in nuclear speckle counts (gems) | SMN2 FL mRNA relative to vehicle [2, 3]: progressively more SMN2 FL mRNA | SMN2 Δ7 mRNA relative to vehicle [2, 3]: less SMN2 Δ7 mRNA | SMN2 alternative splicing ([2]; Type 1 SMA patient fibroblasts, rising concentrations): correction of SMN2 alternative splicing
